Source: ChEMBL document CHEMBL1201862, “PubChem BioAssay data set” (2004)
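A five-concentration, 48-hour dose response in 96-well plates underlies each endpoint, interpolated linearly between surrounding concentrations. GI50 is the concentration that inhibits growth by half.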 Calls of active or inactive are those of the source. No stated cut-off is given here; in the data, active = GI50 up to about 1.1 µM and inactive = higher.

Tests used:
Experiment in all cases: NCI-60 cell line screen, 48 h
786-0 = system: 786-0
COLO 205 = system: COLO 205
DMS-273 = system: DMS-273
HCC 2998 = system: HCC 2998
HCT-116 = system: HCT-116
HL-60 = system: HL-60
MOLT-4 = system: MOLT-4
NCI-H460 = system: NCI-H460
OVCAR-4 = system: OVCAR-4
RXF 393 = system: RXF 393
SK-MEL-5 = system: SK-MEL-5
SN12C = system: SN12C
SW-620 = system: SW-620
TK-10 = system: TK-10
UO-31 = system: UO-31
NCI-H23 = system: NCI-H23
OVCAR-3 = system: OVCAR-3
SF-295 = system: SF-295
BT-549 = system: BT-549
MDA-N = system: MDA-N

Compound | GI50 (786-0) | GI50 (COLO 205) | GI50 (DMS-273) | GI50 (HCC 2998) | GI50 (HCT-116) | GI50 (HL-60) | GI50 (MOLT-4) | GI50 (NCI-H460) | GI50 (OVCAR-4) | GI50 (RXF 393) | GI50 (SK-MEL-5) | GI50 (SN12C) | GI50 (SW-620) | GI50 (TK-10) | GI50 (UO-31) | GI50 (NCI-H23) | GI50 (OVCAR-3) | GI50 (SF-295) | GI50 (BT-549) | GI50 (MDA-N)
O=C(CN1C(=O)c2ccccc2C1=O)OC1C=CCCC1 (stereo not drawn) | > 100 µM (inactive) | > 100 µM (inactive) | > 100 µM (inactive) | > 100 µM (inactive) | > 100 µM (inactive) | > 100 µM (inactive) | > 100 µM (inactive) | > 100 µM (inactive) | > 100 µM (inactive) | > 100 µM (inactive) | > 100 µM (inactive) | > 100 µM (inactive) | > 100 µM (inactive) | > 100 µM (inactive) | > 100 µM (inactive) |  |  |  |  | 
C=CCc1ccc(O)c(-c2cc(C3Oc4c(-c5cc(CC=C)ccc5O)cc(O)cc4[C@@H]3CO)ccc2O)c1 (stereo partly drawn) | 33.5 µM (inactive) | 35 µM (inactive) | 20.4 µM (inactive) | 22.1 µM (inactive) | 23.7 µM (inactive) | 18.5 µM (inactive) |  | 66.2 µM (inactive) | 36.9 µM (inactive) | 21.2 µM (inactive) | 16 µM (inactive) | 32.9 µM (inactive) | 15.7 µM (inactive) | 66.1 µM (inactive) | 40.2 µM (inactive) | 23.7 µM (inactive) | 20.1 µM (inactive) | 48.3 µM (inactive) |  | 
COC(=O)C(=O)C(C(=O)C(=O)Nc1ccccc1[N+](=O)[O-])c1nc2ccc([N+](=O)[O-])cc2nc1O (stereo not drawn) | > 100 µM (inactive) | > 100 µM (inactive) | > 100 µM (inactive) |  | > 100 µM (inactive) | > 100 µM (inactive) | > 100 µM (inactive) | > 100 µM (inactive) | > 100 µM (inactive) | > 100 µM (inactive) | 46.2 µM (inactive) | > 100 µM (inactive) | > 100 µM (inactive) | > 10 µM (inactive) | > 100 µM (inactive) | > 100 µM (inactive) |  | > 100 µM (inactive) |  | 
C[N+](C)(C)C1CC([N+](C)(C)C)C2c3ccccc3C21 (stereo not drawn) | > 100 µM (inactive) | > 100 µM (inactive) | > 100 µM (inactive) | > 100 µM (inactive) | > 100 µM (inactive) | > 100 µM (inactive) |  | > 100 µM (inactive) | > 100 µM (inactive) | > 100 µM (inactive) | > 100 µM (inactive) | > 100 µM (inactive) | > 100 µM (inactive) | > 100 µM (inactive) | > 100 µM (inactive) | > 100 µM (inactive) | > 100 µM (inactive) | > 100 µM (inactive) |  | 
O=C(CC1(O)C(=O)Nc2c(Cl)ccc(Cl)c21)c1ccc(F)cc1 (stereo not drawn) | 31.2 µM (inactive) | 96.6 µM (inactive) | 33.7 µM (inactive) | 82.4 µM (inactive) |  | 28.4 µM (inactive) | 25 µM (inactive) | 54.8 µM (inactive) | 31 µM (inactive) | 29.5 µM (inactive) | 17.9 µM (inactive) | 60.1 µM (inactive) | 34.1 µM (inactive) | 55.8 µM (inactive) | 44.5 µM (inactive) | 23.2 µM (inactive) | 34.8 µM (inactive) | 36 µM (inactive) |  | 
OC12CCC3(OC4CCCCO4)c4ccccc4C3C1c1ccccc12 (stereo not drawn) | 67.5 µM (inactive) | 55.1 µM (inactive) | 61.7 µM (inactive) |  | 35 µM (inactive) | 30.3 µM (inactive) | 35.4 µM (inactive) | 35.2 µM (inactive) | > 100 µM (inactive) | 44.6 µM (inactive) | 48.5 µM (inactive) | 87.7 µM (inactive) | 55.6 µM (inactive) | > 100 µM (inactive) | 59.6 µM (inactive) | 90.2 µM (inactive) |  | 52.5 µM (inactive) |  | 
COc1ccc(NC(=O)CC/C(CC(=O)c2ccccc2Cl)=N\Nc2nnc(C)n2N)cc1 | > 100 µM (inactive) | > 100 µM (inactive) | > 100 µM (inactive) | > 100 µM (inactive) | > 100 µM (inactive) | > 100 µM (inactive) | > 100 µM (inactive) | > 100 µM (inactive) | > 100 µM (inactive) | > 100 µM (inactive) |  | > 100 µM (inactive) | > 100 µM (inactive) | > 100 µM (inactive) | > 100 µM (inactive) | > 100 µM (inactive) |  | > 100 µM (inactive) |  | 
CN(/N=C\c1ccnc2ccccc12)c1ccccc1 | 18.5 µM (inactive) | 20.3 µM (inactive) | 20 µM (inactive) |  | 17.6 µM (inactive) | 17.5 µM (inactive) | > 100 µM (inactive) | 23.7 µM (inactive) | 25.4 µM (inactive) | 30.2 µM (inactive) | 17.3 µM (inactive) | 29.9 µM (inactive) | 23 µM (inactive) | 35.3 µM (inactive) | 25.1 µM (inactive) | 22.3 µM (inactive) | 20.2 µM (inactive) | 25.6 µM (inactive) |  | 
CCCCCCCCCCCCCCCC(=O)NCC(COP(=O)([O-])OCC[N+](C)(C)C)OCC (stereo not drawn) | 2.54 µM (inactive) | 2.31 µM (inactive) | 2.36 µM (inactive) | 1.55 µM (inactive) | 11.2 µM (inactive) |  | 3.24 µM (inactive) | 2.96 µM (inactive) | 3.21 µM (inactive) | 2.1 µM (inactive) | 18.9 µM (inactive) | 12.5 µM (inactive) | 13 µM (inactive) | 1.63 µM (inactive) | 18.5 µM (inactive) | 18.8 µM (inactive) | 6.25 µM (inactive) | 5.2 µM (inactive) |  | 
O=c1c2ccccc2nc(-c2ccccc2Cl)n1NC1OC(CO)C(O)C(O)C1O (stereo not drawn) | > 100 µM (inactive) | > 100 µM (inactive) | > 100 µM (inactive) | > 100 µM (inactive) | > 100 µM (inactive) | > 100 µM (inactive) | > 100 µM (inactive) | > 100 µM (inactive) | > 100 µM (inactive) |  | > 100 µM (inactive) | > 100 µM (inactive) | > 100 µM (inactive) | > 100 µM (inactive) | > 100 µM (inactive) | > 100 µM (inactive) | > 100 µM (inactive) | > 100 µM (inactive) |  | 
c1ccc(SC(Sc2ccccc2)=C2CCC2)cc1 | > 100 µM (inactive) | > 100 µM (inactive) | > 100 µM (inactive) |  | > 100 µM (inactive) | > 100 µM (inactive) | > 100 µM (inactive) | > 100 µM (inactive) | > 100 µM (inactive) | > 100 µM (inactive) | > 100 µM (inactive) | > 100 µM (inactive) | > 100 µM (inactive) | > 100 µM (inactive) | > 100 µM (inactive) | > 100 µM (inactive) | > 100 µM (inactive) | > 100 µM (inactive) |  | 
CCC12C=CCN(CCc3c([nH]c4ccccc34)/C=C\1)C2 (stereo not drawn) | > 100 µM (inactive) | > 100 µM (inactive) | > 100 µM (inactive) | > 100 µM (inactive) | > 100 µM (inactive) | > 100 µM (inactive) | > 100 µM (inactive) | > 100 µM (inactive) | > 100 µM (inactive) |  | > 100 µM (inactive) | > 100 µM (inactive) | > 100 µM (inactive) |  | > 100 µM (inactive) | > 100 µM (inactive) | > 100 µM (inactive) | > 100 µM (inactive) |  | 
CCC12C=CCN3CCC4(c5cc(C(c6ccc(OC)cc6)C6Cc7ccccc7N6)c(OC)cc5N(C)C4C(O)(C(=O)OC)C1O)C32 (stereo not drawn) | 18.7 µM (inactive) | 8.36 µM (inactive) |  | 20 µM (inactive) | 14.4 µM (inactive) | 1.72 µM (inactive) | 2.26 µM (inactive) | 17.6 µM (inactive) | 9.33 µM (inactive) | 14.3 µM (inactive) | 12.1 µM (inactive) | 37.4 µM (inactive) | 21.5 µM (inactive) | 22.9 µM (inactive) | 10.2 µM (inactive) | 27 µM (inactive) | 19.2 µM (inactive) | 18.3 µM (inactive) | 19.9 µM (inactive) | 18.8 µM (inactive)
COc1ccc(NC(=O)CC(=O)N/N=C(\C)c2cc3ccccc3oc2=O)cc1 | > 100 µM (inactive) | > 100 µM (inactive) | > 100 µM (inactive) |  | > 100 µM (inactive) | > 100 µM (inactive) | > 100 µM (inactive) | > 100 µM (inactive) |  | > 100 µM (inactive) | > 100 µM (inactive) | > 100 µM (inactive) | > 100 µM (inactive) | > 100 µM (inactive) | > 100 µM (inactive) | > 100 µM (inactive) | > 100 µM (inactive) | > 100 µM (inactive) |  | 
CC(=O)OC1C(C)OC(OC2C[C@](O)(C(C)=O)Cc3c(O)c4c(c(O)c32)C(=O)c2ccccc2C4=O)C(F)C1OC(C)=O (stereo partly drawn) | 0.287 µM (active) | 1.98 µM (inactive) |  | 1.91 µM (inactive) | 0.318 µM (active) | 0.154 µM (active) | < 0.0142 µM (active) | 0.0353 µM (active) | 3.74 µM (inactive) | 2.74 µM (inactive) | 0.408 µM (active) | 0.281 µM (active) | 0.495 µM (active) | 1.6 µM (inactive) | 0.115 µM (active) | 0.245 µM (active) | 2.52 µM (inactive) | 0.13 µM (active) | 1.04 µM (active) | 1.88 µM (inactive)
Cc1nc2sccn2c1C(=O)NN | > 100 µM (inactive) | > 100 µM (inactive) | > 100 µM (inactive) | > 100 µM (inactive) | > 100 µM (inactive) | > 100 µM (inactive) | > 100 µM (inactive) | > 100 µM (inactive) |  | > 100 µM (inactive) | > 100 µM (inactive) | > 100 µM (inactive) | > 100 µM (inactive) | > 100 µM (inactive) |  | > 100 µM (inactive) | > 100 µM (inactive) | > 100 µM (inactive) |  | 
